Measurements as given in patent publication US20130111611A1, “METHOD TO MEASURE THE METABOLIC RATE OR RATE OF GLUCOSE CONSUMPTION OF CELLS OR TISSUES WITH HIGH SPATIOTEMPORAL RESOLUTION USING A GLUCOSE NANOSENSOR” (CARNEGIE, INSTITUTION OF WASHINGTON, priority 2010, published 2013).

Test system: cultured astrocytes
Assay: Intracellular glucose and glycolytic rate in cultured astrocytes with FRET glucose nanosensor (ITM)
Format: cell-based, mouse
Conditions: for effect on the intracellular concentration of glucose: cultured astrocytes exposed to the compound, FIG. 3a; for glycolytic rate obtained with the GLUT inhibitor: cultured astrocytes, n=20 cells in three paired experiments, not significantly different between inhibitors
Text: In another embodiment, the disruption of the glucose steady-state can be attained by blocking the glucose transporter GLUT with a suitable inhibitor (ITM).
Independent of the embodiment of the method used to disrupt the steady-state, the rate of glycolysis is estimated by fitting a monoexponential function to the time course of decay. In one embodiment, the metabolic rate is computed from the rate of glucose concentration decrease at the point when the intracellular concentration becomes equal to the extracellular concentration, for instance at 0.3 mM (interrupted line in FIG. 2b). In a second embodiment, in the presence of a GLUT blocker, the metabolic rate is computed from the rate of glucose concentration decrease at any glucose concentration.
Animals used were mixed F1 male mice (C57BU6J×CBA/J), kept in an animal room under SPF conditions at a room temperature of 20±2° C., in a 12/12 h light/dark cycle with free access to food and water. All experiments were approved by the Centro de Estudios Científicos Animal Care and Use Committee. Mixed cortical cultures of neuronal and glial cells were prepared from 1-3 day-old neonatal mice as described in Loaiza et al.^19, except that N1-N2/MEM was replaced by B27-supplemented Neurobasal medium (Gibco). Cultures were maintained at 37° C. in a humidified atmosphere of 5% CO2. At days 5-7, cultures in 35 mm dishes were transfected with 5 μg plasmid DNA using Lipofectamine 2000 (Gibco) or alternatively, exposed to 5×10^6 PFU of adenoviral vector.
Experiments were carried out at room temperature (22-25° C.). Cultured cells were imaged in HEPES-buffered saline containing (in mM): 136 NaCl, 3 KCl, 1.25 CaCl2, 1.25 MgSO4, 1-2 glucose, 2 sodium lactate, 10 HEPES, pH 7.4 or in 95% O2/5% CO2-gassed buffer of the following composition (in mM): 112 NaCl, 3 KCl, 1.25 CaCl2, 1.25 MgCl2, 1-2 glucose, 2 sodium lactate, 10 HEPES, 24 NaHCO3, pH 7.4. Brain slices were superfused with a 95% O2/5% CO2-gassed buffer containing (in mM): 126 NaCl, 3 KCl, 1.25 NaH2PO4, 1.25 CaCl2, 1.25 MgCl2, 2-3 glucose, 1 sodium lactate, 26 NaHCO3, pH 7.4. When using higher K^+ concentrations, NaCl was adjusted to maintain isotonicity. Cultures and slices were imaged with an Olympus IX70 inverted microscope equipped with a 40× oil-immersion objective, a Cairn monochromator with Optosplit (Faversham, UK), and a Hamamatsu Orca camera (Hamamatsu City, Japan) controlled by Kinetics software. For FRET measurements, CFP was excited at 430 nm for 400 ms. Because of the very high FRET efficiency of FLII12 Pglu600μ ? , which results in low CFP signal^7, we opted for not using the CFP signal in our protocol. Instead, YFP/citrine was excited for 50 ms, which provided a sugar-insensitive denominator for the FRET ratio. […]

SMILES | effect on the intracellular concentration of glucose | glycolytic rate obtained with the GLUT inhibitor [µM/s]
C=C1[C@@H](C)[C@H]2[C@H](Cc3ccccc3)NC(=O)[C@]23[C@H](OC(C)=O)/C=C/[C@@](C)(O)C(=O)[C@@H](C)C/C=C/[C@H]3[C@@H]1O [cytochalasin D] | did not affect the concentration of glucose | 
O=C(CCc1ccc(O)cc1)c1c(O)cc(O)cc1O [Phloretin] |  | 1.7 ± 0.3
C=C1[C@@H](C)[C@H]2[C@H](Cc3ccccc3)NC(=O)[C@]23OC(=O)/C=C/[C@H](O)CCC[C@@H](C)C/C=C/[C@H]3[C@@H]1O [cytochalasin B] | linear decrease in the concentration of glucose | 1.8 ± 0.3
